For 33 compounds, EC50 results are on record in patent US20210251991A1, “SUBSTITUTED 2,2'-BIPYRIMIDINYL COMPOUNDS, ANALOGUES THEREOF, AND METHODS USING SAME” (priority 2018, published 2021).

Each structure is given as a SMILES string.

The first test relates to HBsAg in HepG2.2.15 cells. The test is described as follows: HBsAg assay: inhibition of HBsAg in HepG2.2.15 cells (chemiluminescence immunoassay of supernatant). Type of test: cell-based, hepatitis B virus. The following applies: Hepatitis B virus, HepG2.2.15, 144 h, read-out: sAg EC50, HepG2.2.15 cells, supernatant collected at day 6 after exposure, HBsAg CLIA. As for the experimental part: Inhibition of HBsAg was determined in HepG2.2.15 cells. Cells were maintained in culture medium containing 10% fetal calf serum, […], Glutamine, penicillin/streptomycin. Cells were seeded in 96-well collagen-coated plate at a density of 30,000 cells/well. Serially diluted compounds were added to cells next day at the final DMSO concentration of 0.5%. Cells were incubated with compounds for 2-3 days, after which medium was removed. Fresh medium containing compounds was added to cells for additional 3-4 days. At day 6 after exposure of compounds, supernatant was collected, the HBsAg immunoassay (microplate-based chemiluminescence immunoassay kits, CLIA, Autobio Diagnosics Co., Zhengzhou, China, Catalog #CL0310-2) was used to determine the level of HBsAg according to manufactory instruction. Dose-response curves were generated and the EC50 value (effective concentrations that achieved 50% inhibitory effect) were determined using XLfit software. In addition, cells were seeded at a density of 5,000 cells/well for determination of cell viability in the presence and absence of compounds by using CellTiter-Glo reagent (Promega).
On to `CCC1c2cc(OC)c(F)cc2CN1c1ccnc(-c2ncccn2)n1` (single isomer, unassigned) [Example 77, 2-([2,2′-Bipyrimidin]-4-yl)-1-ethyl-5-fluoro-6-methoxyisoindoline], for which the EC50 – broadly, the concentration at which the effect is half-maximal – amounted to 0.11 µM.

`CCC1c2cc(F)c(OC)cc2CN1c1cnc(C(=O)NS(C)(=O)=O)nc1` (single isomer, unassigned) [Example 102, 5-(1-Ethyl-6-fluoro-5-methoxyisoindolin-2-yl)-N-(methylsulfonyl)pyrimidine-2-carboxamide]: the EC50 came to 0.62 µM.

The test is the same for the next values; noted with them: read-out: sAg EC50; HepG2.2.15 cells, supernatant collected at day 6 after exposure, HBsAg CLIA.
Regarding `CCC1c2ccccc2CCN1c1cnc(-c2ncccn2)nc1` (single isomer, unassigned) [Example 11, 2-([2,2′-Bipyrimidin]-5-yl)-1-ethyl-1,2,3,4-tetrahydroisoquinoline], the 50% effective concentration (EC50) was found to be 1.4 µM.

For `CCC1c2ccccc2CCN1c1cnc(-c2ncccn2)nc1` (single isomer, unassigned) [Example 12, 2-([2,2′-Bipyrimidin]-5-yl)-1-ethyl-1,2,3,4-tetrahydroisoquinoline], the EC50 turned out to be 0.19 µM.

Regarding `CCC1c2cc(OC)c(F)c(F)c2CCN1c1cnc(-c2ncccn2)nc1` (single isomer, unassigned) [Example 30, 1-Ethyl-5,6-difluoro-7-methoxy-2-(2-pyrimidin-2-ylpyrimidin-5-yl)-3,4-dihydro-1H-isoquinoline], the EC50 is 0.13 µM.

Take `CCC1c2cc(OC)c(F)c(F)c2CCN1c1cnc(-c2ncccn2)nc1` (single isomer, unassigned) [Example 31, 1-Ethyl-5,6-difluoro-7-methoxy-2-(2-pyrimidin-2-ylpyrimidin-5-yl)-3,4-dihydro-1H-isoquinoline]: the concentration for a half-maximal effect (EC50) came out at 1.2 µM.

As to `CCC1c2ccc(F)c(F)c2CCN1c1cnc(-c2ncccn2)nc1` (single isomer, unassigned) [Example 33, 1-Ethyl-5,6-difluoro-2-(2-pyrimidin-2-ylpyrimidin-5-yl)-3,4-dihydro-1H-isoquinoline], the EC50 turned out to be 0.39 µM.

`CCC1c2ccc(F)c(F)c2CCN1c1cnc(-c2ncccn2)nc1` (single isomer, unassigned) [Example 34, 1-Ethyl-5,6-difluoro-2-(2-pyrimidin-2-ylpyrimidin-5-yl)-3,4-dihydro-1H-isoquinoline]: the EC50 was found to be 0.16 µM.

For `CC1c2ccc(F)c(F)c2CCN1c1ccnc(-c2ncccn2)n1` (single isomer, unassigned) [Example 37, 2-([2,2′-Bipyrimidin]-4-yl)-5,6-difluoro-1-methyl-1,2,3,4-tetrahydroisoquinoline], the EC50 was 0.31 µM.

In the case of `CC1c2ccc(F)c(F)c2CCN1c1ccnc(-c2ncccn2)n1` (single isomer, unassigned) [Example 38, 2-([2,2′-Bipyrimidin]-4-yl)-5,6-difluoro-1-methyl-1,2,3,4-tetrahydroisoquinoline], the concentration for a half-maximal effect (EC50) was determined as 1.4 µM.

As to `CCC1c2ccc(F)c(F)c2CCN1c1ccnc(-c2ncccn2)n1` (single isomer, unassigned) [Example 40, 1-Ethyl-5,6-difluoro-2-(2-pyrimidin-2-ylpyrimidin-4-yl)-3,4-dihydro-1H-isoquinoline], the half-maximal effective concentration (EC50) stood at 0.5 µM.

Turning to `CCC1c2ccc(F)c(F)c2CCN1c1ccnc(-c2ncccn2)n1` (single isomer, unassigned) [Example 41, 1-Ethyl-5,6-difluoro-2-(2-pyrimidin-2-ylpyrimidin-4-yl)-3,4-dihydro-1H-isoquinoline], the 50% effective concentration (EC50) was 2.6 µM.

Turning to `CCC1c2c(OC)ccc(F)c2CCN1c1ccnc(-c2ncccn2)n1` (single isomer, unassigned) [Example 43, 1-Ethyl-5-fluoro-8-methoxy-2-(2-pyrimidin-2-ylpyrimidin-4-yl)-3,4-dihydro-1H-isoquinoline], the concentration giving a half-maximal response (EC50) is 0.06 µM.

In the case of `CCC1c2c(OC)ccc(F)c2CCN1c1ccnc(-c2ncccn2)n1` (single isomer, unassigned) [Example 44, 1-Ethyl-5-fluoro-8-methoxy-2-(2-pyrimidin-2-ylpyrimidin-4-yl)-3,4-dihydro-1H-isoquinoline], the EC50 was 7 µM.

For `CCC1c2cc(F)c(F)cc2CN1c1ccnc(-c2ncccn2)n1` (single isomer, unassigned) [Example 49, 2-([2,2′-Bipyrimidin]-4-yl)-1-ethyl-5,6-difluoroisoindoline], the half-maximal effective concentration (EC50) turned out to be 0.044 µM.

For the compound `CCC1c2cc(F)c(F)cc2CN1c1ccnc(-c2ncccn2)n1` (single isomer, unassigned) [Example 50, 2-([2,2′-Bipyrimidin]-4-yl)-1-ethyl-5,6-difluoroisoindoline], the concentration for a half-maximal effect (EC50) was determined as 0.4 µM.

Consider `CCC1c2cc(OC)c(OC)cc2CN1c1ccnc(-c2ncccn2)n1` (single isomer, unassigned) [Example 56, 2-([2,2′-Bipyrimidin]-4-yl)-1-ethyl-5,6-dimethoxyisoindoline], for which the EC50 was found to be 0.012 µM.

Take `CCC1c2cc(OC)c(OC)cc2CN1c1ccnc(-c2ncccn2)n1` (single isomer, unassigned) [Example 57, 2-([2,2′-Bipyrimidin]-4-yl)-1-ethyl-5,6-dimethoxyisoindoline]: the EC50 came out at 0.076 µM.

Turning to `CCC1c2cc(F)c(OC)cc2CN1c1ccnc(-c2ncccn2)n1` (single isomer, unassigned) [Example 64, 2-([2,2′-Bipyrimidin]-4-yl)-1-ethyl-6-fluoro-5-methoxyisoindoline], the half-maximal effective concentration (EC50) is 0.012 µM.

`CCC1c2cc(F)c(OC)cc2CN1c1ccnc(-c2ncccn2)n1` (single isomer, unassigned) [Example 65, 2-([2,2′-Bipyrimidin]-4-yl)-1-ethyl-6-fluoro-5-methoxyisoindoline]: the EC50 stood at 0.23 µM.

In the case of `CCC1c2cc(F)c(OC)cc2CN1c1nc(-c2ncccn2)ncc1-c1ccccc1` (single isomer, unassigned) [Example 66, 1-Ethyl-6-fluoro-5-methoxy-2-(5-phenyl-[2,2′-bipyrimidin]-4-yl)isoindoline], the EC50 was determined as 1 µM.

As for `CCC1c2cc(F)c(OC)cc2CN1c1nc(-c2ncccn2)ncc1-c1ccccc1` (single isomer, unassigned) [Example 67, 1-Ethyl-6-fluoro-5-methoxy-2-(5-phenyl-[2,2′-bipyrimidin]-4-yl)isoindoline], the EC50 was found to be 18 µM.

As for `CCC1c2cc(F)c(OC)cc2CN1c1nc(-c2ncccn2)ncc1C` (single isomer, unassigned) [Example 68, 1-Ethyl-6-fluoro-5-methoxy-2-(5-methyl-[2,2′-bipyrimidin]-4-yl)isoindoline], the EC50 was found to be 0.002 µM.

Turning to `CCC1c2cc(F)c(OC)cc2CN1c1nc(-c2ncccn2)ncc1C` (single isomer, unassigned) [Example 69, 1-Ethyl-6-fluoro-5-methoxy-2-(5-methyl-[2,2′-bipyrimidin]-4-yl)isoindoline], the half-maximal effective concentration (EC50) is 0.059 µM.

For `CCC1c2cc(F)c(OC)cc2CN1c1nc(-c2ncccn2)ncc1F` (single isomer, unassigned) [Example 71, 1-Ethyl-6-fluoro-2-(5-fluoro-[2,2′-bipyrimidin]-4-yl)-5-methoxyisoindoline], the half-maximal effective concentration (EC50) came to 0.003 µM.

Turning to `CCC1c2cc(F)c(OC)cc2CN1c1nc(-c2ncccn2)ncc1F` (single isomer, unassigned) [Example 72, 1-Ethyl-6-fluoro-2-(5-fluoro-[2,2′-bipyrimidin]-4-yl)-5-methoxyisoindoline], the 50% effective concentration (EC50) came to 0.067 µM.

For `CCC1c2cc(F)c(OC)cc2CN1c1nc(-c2ncccn2)ncc1OC` (single isomer, unassigned) [Example 73, 1-Ethyl-6-fluoro-5-methoxy-2-(5-methoxy-[2,2′-bipyrimidin]-4-yl)isoindoline], the concentration for a half-maximal effect (EC50) worked out at 1 µM.

For the compound `CCC1c2cc(F)c(OC)cc2CN1c1nc(-c2ncccn2)ncc1OC` (single isomer, unassigned) [Example 74, 1-Ethyl-6-fluoro-5-methoxy-2-(5-methoxy-[2,2′-bipyrimidin]-4-yl)isoindoline], the concentration for a half-maximal effect (EC50) stood at 0.008 µM.

In the case of `CCC1c2cc(OC)c(F)cc2CN1c1ccnc(-c2ncccn2)n1` (single isomer, unassigned) [Example 78, 2-([2,2′-Bipyrimidin]-4-yl)-1-ethyl-5-fluoro-6-methoxyisoindoline], the EC50 worked out at 0.098 µM.

As for `CCC1c2cc(F)c(OC)cc2CN1c1cnc(-c2ncccn2)nc1` (single isomer, unassigned) [Example 89, 2-([2,2′-Bipyrimidin]-5-yl)-1-ethyl-6-fluoro-5-methoxyisoindoline], the EC50 worked out at 0.008 µM.

As for `CCC1c2cc(F)c(OC)cc2CN1c1cnc(-c2ncccn2)nc1` (single isomer, unassigned) [Example 90, 2-([2,2′-Bipyrimidin]-5-yl)-1-ethyl-6-fluoro-5-methoxyisoindoline], the EC50 stood at 0.26 µM.

`CCC1c2cc(F)c(OC)cc2CN1c1cnc(C(=O)O)nc1` (single isomer, unassigned) [Example 99, 5-(1-Ethyl-6-fluoro-5-methoxyisoindolin-2-yl)pyrimidine-2-carboxylic Acid]: the EC50 stood at 7 µM.

As for `CCC1c2cc(F)c(OC)cc2CN1c1cnc(C(=O)O)nc1` (single isomer, unassigned) [Example 100, 5-(1-Ethyl-6-fluoro-5-methoxyisoindolin-2-yl)pyrimidine-2-carboxylic Acid], the EC50 worked out at 0.2 µM.
